# Like-named read-outs stand apart in the source and are kept apart here.
# Key:
# [1] = test system: HIV-1/LAI; assay: Anti-HIV-1 assay in PBM cells; type: cell-based; details: Tables 2-4, n = 3 for the MP prodrugs
# Description: Stock solutions (20-40 mM) of the compounds were prepared in sterile DMSO and then diluted to the desired concentration in growth medium. Cells were infected with the prototype HIV-1LAI at a multiplicity of infection of 0.01. Virus obtained from the cell supernatant was quantified on day 6 after infection by a reverse transcriptase assay using (rA)n·(dT)12-18 as template-primer. […] The antiviral EC50 and EC90 were obtained from the concentration-response curve using the median effective method described previously (see Chou T.-C. & Talalay P. Adv. Enzyme Regul. 1984, 22, 27-55; Belen'kii M. S. & Schinazi R. F. Antiviral Res. 1994, 25, 1-11).
# [2] = test system: Vero cells; assay: Cytotoxicity assay in Vero cells; type: cell-based; details: read-out: Vero IC50; Tables 2-4
# [3] = test system: HIV-1 Q151Mc (A62V/V75I/F77L/F116Y/Q151M); assay: microbe, parasite or virus in culture; type: cell-based; details: mean ± standard deviation
# Description: (§1) In a 96-well plate, two- or three-fold serial dilutions of an inhibitor were added to P4/R5 cells in triplicate. […] At 48 h post-infection, a cell lysis buffer and luminescent substrate (Gal-Screen; Tropix/Applied Biosystems) was added to each well, and relative light unit values were determined using a luminometer (ThermoLabSystems, Waltham, Mass.).
# (§2) Virus stocks were prepared as described above. Drug susceptibility assays were performed using the single- and multiple-replication-cycle assays also described above.
# [4] = test system: HIV-1 T69SSS (M41L/T69SSS/L210W/T215Y); assay: microbe, parasite or virus in culture; type: cell-based; details: Human immunodeficiency virus 1, P4/R5, P4/R5 cells, mean ± standard deviation
# Description: as §1, §2
# [5] = test system: HIV-1 AZT9 (M41L/D67N/K70R/L210W/T215Y/K219Q); assay: microbe, parasite or virus in culture; type: cell-based
# Description: as §1, §2
# [6] = test system: HIV-1 K65R; assay: microbe, parasite or virus in culture; type: cell-based
# Description: as §1, §2
# [7] = test system: HIV-1 M184V; assay: microbe, parasite or virus in culture; type: cell-based
# Description: as §1, §2
# [8] = test system: HIV-1 AZT2 (D67N/K70R/T215F/K219Q); assay: microbe, parasite or virus in culture; type: cell-based
# Description: as §1, §2
# [9] = test system: HIV-1 AZT3 (M41L/L210W/T215Y); assay: microbe, parasite or virus in culture; type: cell-based
# Description: as §1, §2
# [10] = test system: HIV-1 AZT7 (M41L/D67N/K70R/T215F/K219Q); assay: microbe, parasite or virus in culture; type: cell-based
# Description: as §1, §2
# [11] = test system: HIV-1 L74V; assay: microbe, parasite or virus in culture; type: cell-based
# Description: as §1, §2
# [12] = test system: CEM cells; assay: Cytotoxicity assay in CEM cells; type: cell-based, human; details: Tables 2-4; read-out: CEM IC50
# [13] = test system: PBM cells; assay: Cytotoxicity assay in PBM cells; type: cell-based, human; details: Tables 2-4; read-out: PBM IC50
# [14] = test system: NRTI-resistant HIV-1; assay: Cross-resistance against a broad panel of NRTI-resistant HIV-1; type: cell-based
# [15] = test system: WT (LAI) HIV-1; assay: Single cycle assay in P4/R5 cells, WT HIV-1; type: cell-based
# Description: as §1, §2
# [16] = target: T1, Wild-type (WT) HIV-1 RT (Human immunodeficiency virus type 1 group M subtype B, UniProt P03367); assay: Inhibition of HIV-1 RT DNA synthesis by 6-modified-AZG analogs; type: biochemical; details: DNA/DNA template/primer, 200 nM WT RT, 40 min
# T1 construct: HIV-1 RT (xxLAI background); inferred from vector p6HRT-PROT and the cited metal chelate purification; made in house; host or cells: bacteria (p6HRT-PROT expression vector)
# Description: Wild-type (WT) HIV-1 RT was purified as described previously (1, 2). […] The 214 nucleotide (nt) DNA template, corresponding to the HIV-1 PBS region, was prepared as described previously (4). Reactions were initiated by the addition of 200 nM WT RT, incubated for 40 min at 37° C. and then quenched using 20 μL of gel loading buffer (98% deionized formamide containing 1 mg/mL each of bromophenol blue and xylene cyanol). […] Gels were analyzed using phosphorimaging with a GS525 Molecular Imager and Quantity One Software (Biorad Laboratories, Inc., Hercules, Calif.).
# [17] = test system: 151M complex RT; assay: Studies with purified RT: inhibition of 151M complex RT; type: biochemical, HIV-1
# [18] = Human immunodeficiency virus 1, P4/R5 cells, mean ± standard deviation
smiles,measurement,setting,value
CCOC(=O)[C@H](C)NP(=O)(OC[C@H]1O[C@@H](n2cnc3c(N)nc(N)nc32)CC1N=[N+]=[N-])Oc1ccccc1 (stereo partly shown) [RS-788],EC50,[1]; read-out: HIV EC50,9 nM
same,EC90,[1]; read-out: HIV EC90,110 nM
same,IC50,[2],> 100000 nM
same,EC50,"[3]; Human immunodeficiency virus 1, P4/R5, P4/R5 cells",280 nM
same,EC50,[3]; P4/R5 cells,277 ± 70 nM
same,EC50,[4],440 nM
same,"Fold-change versus WT, AZT9",[5]; EC50 mutant / EC50 WT,(2.1) fold
same,EC50,[5]; [18],253 ± 90 nM
same,"Fold-change versus WT, K65R",[6]; EC50 mutant / EC50 WT,(0.9) fold
same,EC50,[6]; [18],106 ± 70 nM
same,"Fold-change versus WT, M184V",[7]; EC50 mutant / EC50 WT,(0.4) fold
same,EC50,[7]; [18],48 ± 30 nM
same,"Fold-change versus WT, AZT2",[8]; EC50 mutant / EC50 WT,(2.3) fold
same,EC50,[8]; [18],274 ± 70 nM
same,"Fold-change versus WT, AZT3",[9]; EC50 mutant / EC50 WT,(1.6) fold
same,EC50,[9]; [18],189 ± 20 nM
same,"Fold-change versus WT, AZT7",[10]; EC50 mutant / EC50 WT,(2.3) fold
same,EC50,[10]; [18],270 ± 50 nM
same,"Fold-change versus WT, L74V",[11]; EC50 mutant / EC50 WT,(0.6) fold
same,EC50,[11]; [18],73 ± 20 nM
same,IC50,[12],30400 nM
same,IC50,[13],38300 nM
same,"cross-resistance profile compared to AZD, AZG or AZT",[14],superior cross-resistance profile
same,fold more potent against WT HIV-1 compared to either RS-667 or RFS-457,[15],~10 fold
same,EC50,"[15]; Human immunodeficiency virus 1, P4/R5, read-out: EC50 WT (LAI), P4/R5 cells, mean ± standard deviation",120 nM
same,EC50,"[15]; read-out: EC50 WT (LAI), P4/R5 cells, mean ± standard deviation",118 ± 60 nM
[N-]=[N+]=N[C@H]1C[C@H](n2cnc3c(N)nc(N)nc32)O[C@@H]1COP(=O)(O)OP(=O)(O)OP(=O)(O)O [RS-667-TP],potency of inhibition of HIV-1 RT DNA synthesis (rank order),[16],most potent analog
same,potency against 151M complex RT,[17],less potent than AZG-TP
